This assay concerns the target HIV-1 protease (Human immunodeficiency virus type 1 group M subtype B, UniProt P04585). In words: Fluorescence HIV-1 Protease Inhibitor Assay (Pandex). More on the design: made in house; host or cells: E. coli K12 L507/pHP10D (NRRL B-18560). Type of assay: biochemical.
The mark [1] stands for this setting: normalized to positive control (=1.0), * = a calculated average, read-out: Fluorescence Assay IC50 in ng/mL (converted).
[2] abbreviates: value as run, 35B value of the same run in footnote or parentheses, read-out: Pandex IC50 ng/ml (converted).
[3] abbreviates: normalized to positive control (=1.0), * = a calculated average.
[4] abbreviates: value as run, 35B value of the same run in footnote or parentheses.

Several values for one entry are separate records, joined by “and”; a condition that tells them apart may be missing. Equal entries are not always repeated. Where two headings read alike, the source gives them in different places. Marks after values point to notes of the source that are not given here.

Take `CC(C)(C)NC(=O)C1CC2CCCCC2CN1CC(O)C(Cc1ccccc1)NC(=O)c1cccc(O)c1F` (stereo not drawn) [Example 1, [3S-(3R*,4aR*,8aR*,2′S*,3′R*)]-2-[2′-Hydroxy-3′-phenylmethyl-4′-aza-5′-oxo-5′-(2″-fluoro-3″-hydroxyphenyl)pentyl]decahydroisoquinoline-3-N-t-butylcarboxamide]: the IC50 was 1780 nM under setting [1] and 856 nM under setting [2].
As to `CC(C)(C)NC(=O)C1CC2CCCCC2CN1CC(O)C(Cc1ccccc1)NC(=O)c1cccnc1Cl` (stereo not drawn) [Example 2, [3S-(3R*,4aR*,8aR*,2′S*,3′R*)]-2-[2′-Hydroxy-3′-phenylmethyl-4′-aza-5′-oxo-5′-(2″-chloro-pyrid-3″-yl)pentyl] decahydroisoquinoline-3-N-t-butylcarboxamide], the IC50 runs as follows: under setting [1], 2000 nM; under setting [2], 963 nM.
For `CCc1c(O)cccc1C(=O)NC(Cc1ccccc1)C(O)CN1CC2CCCCC2CC1C(=O)NC(C)(C)C` (stereo not drawn) [Example 3, [3S-(3R*,4aR*,8aR*,2′S*,3′R*)]-2-[2′-Hydroxy-3′-phenylmethyl-4′-aza-5′-oxo-5′-(2″-ethyl-3″-hydroxyphenyl)pentyl] decahydroisoguinoline-3-N-t-butylcarboxamide], the IC50 was 44 nM under setting [1] and 21.1 nM under setting [2].
The like results for `CC(C)(C)NC(=O)C1CC2CCCCC2CN1CC(O)C(Cc1ccccc1)NC(=O)c1ccc[n+]([O-])c1` (stereo not drawn) [Example 5, [3S-(3R*,4aR*,8aR*,2′S*,3′R*)]-2-[2′-Hydroxy-3′-phenylmethyl-4′-aza-5′-oxo-5′-(pyrid-3″yl-N-oxidyl)pentyl] decahydroisoquinoline-3-N-t-butylcarboxamide] were, in that order, 5030 nM and 1910 nM.
On to `CC(C)(C)NC(=O)C1CC2CCCCC2CN1CC(O)C(Cc1ccccc1)NC(=O)c1cccc(O)c1Cl` (stereo not drawn) [Example 11, [3S-(3R*,4aR*,8aR*,2′S*,3′R*)]-2-[2′-Hydroxy-3′-phenylmethyl-4′-aza-5′-oxo-5′-(2″-chloro-3″-hydroxyphenyl)pentyl] decahydroisoquinoline-3-N-t-butylcarboxamide], for which the IC50 under setting [1] was 9.17 nM and the IC50 under setting [2] was 24.6 nM.
Consider `Cc1c(O)cccc1C(=O)NC(Cc1ccccc1)C(O)CN1CC2CCCCC2CC1C(=O)NC(C)(C)C` (stereo not drawn) [Example 12, [3S-(3R*,4aR*,8aR*,2′S*,3′R*)]-2-[2′-Hydroxy-3′-phenylmethyl-4′-aza-5′-oxo-5′-(2″-methyl-3″-hydroxyphenyl)pentyl] decahydroisoquinoline-3-N-t-butylcarboxamide], for which the IC50 reads like this: under setting [1], 15.5 nM; under setting [2], 21.3 nM and 5.23 nM and 17.5 nM.
Regarding `CC(C)(C)NC(=O)C1CC2CCCCC2CN1CC(O)C(Cc1ccccc1)NC(=O)c1ccccc1C(F)(F)F` (stereo not drawn) [Example 15, [3S-(3R*,4aR*,8aR*,2′S*,3′R*)]-2-[2′-Hydroxy-3′-phenylmethyl-4′-aza-5′-oxo-5′-(2″-trifluoromethylphenyl)pentyl] decahydroisoquinoline-3-N-t-butylcarboxamide], the IC50 is, setting by setting: under setting [1], 657 nM; under setting [2], 315 nM.
Turning to `CC(C)(C)NC(=O)C1CC2CCCCC2CN1CC(O)C(Cc1ccccc1)NC(=O)c1c(Cl)ccc(O)c1Cl` (stereo not drawn) [Example 17, [3S-(3R*,4aR*,8aR*,2′S*,3′R*)]-2-[2′-Hydroxy-3′-phenylmethyl-4′-aza-5′-oxo-5′-(2″,6″-dichloro-3″-hydroxyphenyl)pentyl] decahydroisoquinoline-3-N-t-butylcarboxamide], under setting [3], the “Fluorescence Assay IC50 in ng/mL” value is given as 269* ng/mL. For the same molecule, the “Pandex IC50 ng/ml” value under setting [4] was 346^b ng/ml.
With `Cc1c(N)cccc1C(=O)NC(Cc1ccccc1)C(O)CN1CC2CCCCC2CC1C(=O)NC(C)(C)C` (stereo not drawn) [Example 18, [3S-(3R*,4aR*,8aR*,2′S*,3′R*)]-2-[2′-Hydroxy-3′-phenylmethyl-4′-aza-5′-oxo-5′-(2″-methyl-3″-aminophenyl)pentyl] decahydroisoquinoline-3-N-t-butylcarboxamide], the IC50 is 126 nM under setting [1] and 17.8 nM under setting [2].
As to `CC(C)c1c(O)cccc1C(=O)NC(Cc1ccccc1)C(O)CN1CC2CCCCC2CC1C(=O)NC(C)(C)C` (stereo not drawn) [Example 20, [3S-(3R*,4aR*,8aR*,2′S*,3′R*)]-2-[2′-Hydroxy-3′-phenylmethyl-4′-aza-5′-oxo-5′-(2″-iospropyl-3″-hydroxyphenyl)pentyl] decahydroisoquinoline-3-N-t-butylcarboxamide], the IC50 by setting is: under setting [1], 11.5 nM; under setting [2], 151 nM.
With `CCCCc1c(O)cccc1C(=O)NC(Cc1ccccc1)C(O)CN1CC2CCCCC2CC1C(=O)NC(C)(C)C` (stereo not drawn) [Example 21, [3S-(3R*,4aR*,8aR*,2′S*,3′R*)]-2-[2′-Hydroxy-3′-phenylmethyl-4′-aza-5′-oxo-5′-(2″-butyl-3′″-hydroxyphenyl)pentyl] decahydroisoquinoline-3-N-t-butylcarboxamide], the IC50 under setting [1] is 16.3 nM and the IC50 under setting [2] is 13.7 nM.
The like results for `CCCc1c(O)cccc1C(=O)NC(Cc1ccccc1)C(O)CN1CC2CCCCC2CC1C(=O)NC(C)(C)C` (stereo not drawn) [Example 22, [3S-(3R*,4aR*,8aR*,2′S*,3′R*)]-2-[2′-Hydroxy-3′-phenylmethyl-4′-aza-5′-oxo-5′-(2″-propyl-3″-hydroxyphenyl)pentyl] decahydroisoquinoline-3-N-t-butylcarboxamide] were, in that order, 1.29 nM and 124 nM.
Consider `Cc1c(O)cccc1C(=O)NC(Cc1ccccc1)C(O)CN1CC2CCCCC2CC1C(=O)NC(C)(C)C` (stereo not drawn) [Example 23, [3S-(3R*,4aR*,8aR*,2′S*,3′R*)]-2-[2′-Hydroxy-3′-phenylmethyl-4′-aza-5′-oxo-5′-(2″-methyl-3″-hydroxyphenyl)pentyl] decahydroisoquinoline-3-N-t-butylcarboxamide], for which the “Fluorescence Assay IC50” value under setting [3] is 0.00025 µg/mL. Moreover, the “Pandex IC50 ng/ml” value under setting [4] was 0.2^c ng/ml and 0.16^d ng/ml and 0.2^b ng/ml.
As for `Cc1c(O)cccc1C(=O)NC(CSc1ccc2ccccc2c1)C(O)CN1CC2CCCCC2CC1C(=O)NC(C)(C)C` (stereo not drawn) [Example 24, [3S-(3R*,4aR*,8aR*,2′S*,3′R*)]-2-[2′-Hydroxy-3′-(naphth-2-ylthiomethyl)-4′-aza-5′-oxo-5′-(2″-methyl-3″-hydroxyphenyl)pentyl] decahydroisoquinoline-3-N-t-butylcarboxamide], the “Pandex % at 20 ng/ml” value (at 20 ng/ml) came out at 84%/20^d. The IC50 under setting [1] is 9.39 nM and the IC50 under setting [2] is 4.53 nM.
For the molecule `Cc1c(O)cccc1C(=O)N[C@@H](CSc1ccc2ccccc2c1)[C@H](O)CN1CCCC[C@H]1C(=O)NC(C)(C)C` [Example 25, [2S-(2R*,2′S*,3′S*)]-1-[2′-Hydroxy-3′-(naphth-2-ylthiomethyl-4′-aza-5′-oxo-5′-(2″-methyl-3″-hydroxyphenyl)pentyl]piperidine-2-N-t-butylcarboxamide], the IC50 under setting [1] was 5.68 nM; the IC50 under setting [2] was 3.55 nM and 25.4 nM.
As for `Cc1c(O)cccc1C(=O)N[C@@H](Cc1ccccc1)[C@H](O)CN1CCN(Cc2cccnc2)C[C@H]1C(=O)NC(C)(C)C` [Example 26, [2S-(2R*,2′S*,3′R*)]-1-[2′-Hydroxy-3′-phenylmethyl-4′-aza-5′-oxo-5′-(2″-methyl-3″-hydroxyphenyl)pentyl]-4-(pyrid-3′″-ylmethyl) piperazine-2-N-t-butylcarboxamide], the IC50 reads like this: under setting [1], 5.4 nM; under setting [2], 4.01 nM.
“[3S-(3R*,4aR*,8aR*,2′S*,3′S*)]-2-[2′-Hydroxy-3′-phenylmethyl-4′-aza-5′-oxo-5′-[2″-methyl-3″-N-(methylsulfonyl)amino-phenyl)]pentyl] decahydroisoguinoline-3-N-t-butylcarboxamide [Example 36]”: the “Fluorescence Assay IC50” value under setting [3] was 0.062 µg/mL. In addition, the “Pandex IC50 ng/ml” value under setting [4] is on record as 93^e ng/ml.

The record behind these values is patent publication US20030216569A1, “Method of making HIV protease inhibitors” (priority 1993, published 2003).
